# In BindingDB's records for doi:10.1021/jm00095a005 (Pfizer, 1992):
# Biological target: Platelet-activating factor receptor (Oryctolagus cuniculus)
# Assay: In vitro inhibition of PAF-induced aggregation of rabbit washed platelets.
row,SMILES,IC50 [nM]
1,CCOC(=O)C1=C(c2ccc(-n3c(C)nc4ccncc43)cc2)N=C(C)C(C(=O)Nc2ccccn2)C1c1ccccc1Cl (stereo unspecified),22
2,CCOC(=O)C1=C(c2ccc(-n3c(C)nc4cnccc43)cc2)N=C(C)C(C(=O)Nc2ccccn2)C1c1cccnc1 (stereo unspecified),33
3,CCOC(=O)C1=C(c2ccc(-n3c(C)nc4cnccc43)cc2)N=C(C)C(C(=O)O)C1c1ccccc1Cl (stereo unspecified),14
4,CCOC(=O)C1=C(c2ccc(-n3c(C)nc4cnccc43)cc2)N=C(C)C(C(=O)Nc2ccccn2)C1c1cccc2c1OCO2 (stereo unspecified),3.2
5,CCCCc1nc2cnccc2n1-c1ccc(C2=C(C(=O)OCC)C(c3ccccc3Cl)C(C(=O)Nc3ccccn3)C(C)=N2)cc1 (stereo unspecified),190
6,CCOC(=O)C1=C(c2ccc(-n3c(C)nc4cnccc43)cc2)N=C(C)C(C(=O)Nc2ccccn2)C1c1cccnc1Cl (stereo unspecified),13
7,CCOC(=O)C1=C(c2ccc(-n3c(C)nc4cnccc43)cc2)N=C(C)C(C(N)=O)C1c1ccccc1Cl (stereo unspecified),5.6
8,CCOC(=O)C1=C(c2ccc(-c3c(C)nc4sccn34)cc2)NC(C)=C(C(=O)Nc2ccccn2)C1c1ccccc1Cl (stereo unspecified),5
9,CCOC(=O)C1=C(c2ccc(-n3c(C)nc4cnccc43)cc2)N=C(C)C(C(=O)NC(C)(C)C)C1c1ccccc1Cl (stereo unspecified),3.2
10,CCOC(=O)C1=C(c2ccc(-n3c(C)nc4cnccc43)cc2)N=C(C)C(C(=O)OC(C)(C)C)C1c1ccccc1Cl (stereo unspecified),1.3
11,CCOC(=O)C1=C(c2ccc(-n3cnc(C)c3)cc2)N=C(C)C(C(=O)Nc2ccccn2)C1c1ccccc1Cl (stereo unspecified),580
12,CCOC(=O)C1=C(c2ccc(-n3c(C)nc4cnccc43)cc2)N=C(C)C(C(=O)Nc2ccccn2)C1c1ccccn1 (stereo unspecified),14
13,CCOC(=O)C1=C(c2ccc(-n3c(C)nc4cnccc43)cc2)N=C(C)C(C(=O)Nc2ccccn2)C1c1csc2ccccc12 (stereo unspecified),3.1
14,CCOC(=O)C1=C(c2ccc(-n3c(C)nc4cccnc43)cc2)N=C(C)C(C(=O)Nc2ccccn2)C1c1ccccc1Cl (stereo unspecified),28
15,CCOC(=O)C1=C(c2ccc(-n3ccnc3C)cc2)N=C(C)C(C(=O)Nc2ccccn2)C1c1ccccc1Cl (stereo unspecified),23
16,CCOC(=O)C1=C(c2ccc(-n3nc(C)cc3C)cc2)N=C(C)C(C(=O)Nc2ccccn2)C1c1ccccc1Cl (stereo unspecified),> 10000

# More lines, now with the values ahead:
row,IC50 [nM],SMILES
1,25,CCOC(=O)C1=C(c2ccc(-n3c(C)nc4cnccc43)cc2)N=C(C)C(C(=O)Nc2ccccn2)C1c1ccc(C#N)cc1 (stereo unspecified)
2,5.9,CCOC(=O)C1=C(c2ccc(-n3c(C)nc4c(C)nc(C)cc43)cc2)N=C(C)C(C(=O)Nc2ccccn2)C1c1ccccc1Cl (stereo unspecified)
3,12,CCOC(=O)C1=C(c2ccc(-n3c(C)nnc3C)cc2)N=C(C)C(C(=O)Nc2ccccn2)C1c1ccccc1Cl (stereo unspecified)
4,270,CCOC(=O)C1=C(c2ccc(-n3c(C)nc4c(OC)ncnc43)cc2)N=C(C)C(C(=O)Nc2ccccn2)C1c1ccccc1Cl (stereo unspecified)
5,2.1,CCOC(=O)C1=C(c2ccc(-c3c(C)nc4ccccn34)cc2)N=C(C)C(C(=O)Nc2ccccn2)C1c1ccccc1Cl (stereo unspecified)
6,30,CCOC(=O)C1=C(c2ccc(-n3c(C(F)(F)F)nc4cnccc43)cc2)N=C(C)C(C(=O)Nc2ccccn2)C1c1ccccc1Cl (stereo unspecified)
7,13,CCOC(=O)C1=C(c2ccc(-n3cc(C)nc3C)cc2)N=C(C)C(C(=O)Nc2ccccn2)C1c1ccccc1Cl (stereo unspecified)
8,200,CCOC(=O)C1=C(c2ccc(-c3ocnc3C)cc2)N=C(C)C(C(=O)Nc2ccccn2)C1c1ccccc1Cl (stereo unspecified)
9,2.3,CCOC(=O)C1=C(c2ccc(-n3c(C)nc4cnccc43)cc2)N=C(C)C(C(=O)Nc2ccccn2)C1c1ccccc1OC(F)(F)F (stereo unspecified)
10,1.6,CCOC(=O)C1=C(c2ccc(-n3c(C)nc4cnccc43)cc2)N=C(C)C(C(=O)OC)C1c1ccccc1Cl (stereo unspecified)
